The values below come from ChEMBL document CHEMBL1127872, “Discovery and development of aryl-fused imidazole-based angiotensin II antagonists” (Bioorg Med Chem Lett, 1994).

Each structure is given as a SMILES string.

For test [1], the target named is T1, Type-1 angiotensin II receptor (Bos taurus, UniProt P25104).
T1 sequence (P25104 whole entry): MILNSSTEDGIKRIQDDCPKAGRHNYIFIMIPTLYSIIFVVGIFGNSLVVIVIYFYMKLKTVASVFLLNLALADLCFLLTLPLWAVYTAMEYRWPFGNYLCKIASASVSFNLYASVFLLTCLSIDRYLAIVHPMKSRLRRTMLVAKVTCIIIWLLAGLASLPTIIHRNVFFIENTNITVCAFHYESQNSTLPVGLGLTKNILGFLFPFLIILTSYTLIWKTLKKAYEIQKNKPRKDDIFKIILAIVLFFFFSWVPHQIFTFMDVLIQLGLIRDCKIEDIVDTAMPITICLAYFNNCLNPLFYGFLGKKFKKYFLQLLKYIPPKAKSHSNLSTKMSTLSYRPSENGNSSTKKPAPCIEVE
As to the kind of experiment: Inhibition of [125I][Ile5]-AII binding to bovine adrenal cortex membrane Angiotensin II receptor type 1. Format: tissue-based.

The species entered for test [2] is Oryctolagus cuniculus. As to the kind of experiment: Potency of the Angiotensin II-induced contraction of rabbit aortic strips. Format: functional, Aorta. The conditions noted are these: for Kb: Oryctolagus cuniculus, Aorta, read-out: pA2 (converted).
Test [3] deals with Angiotensin II receptor (Rattus norvegicus) (UniProt P29089+P25095+P35351). Briefly: In vivo antagonism of Angiotensin II induced dose-pressor response in male rats. The class given is functional, organism-based.

Turning to `CCCCc1nc2ccccc2n1Cc1ccc(I)c(O)c1I`, the IC50 (as a rule, the concentration that gives 50% inhibition) in test [1] is 33000 nM.
`CCCCc1nc2ccccc2n1Cc1cc(C)c(O)c(I)c1` had an IC50 in test [1] of 2200 nM.
The molecule `CCCCc1nc2ccccc2n1Cc1cc(I)c(O)c(I)c1` showed an IC50 in test [1] of 1500 nM.
In the case of `Oc1c(Cl)cc(Cn2c(C3CC3)nc3cccnc32)cc1Cl`, in test [2], the Kb is 20 nM. This molecule also gave an ED2 in test [3] of 0.48 mg/kg.
`CCCCc1nc2ccccc2n1Cc1cc(C)c(O)c([N+](=O)[O-])c1` displayed a 50% inhibitory concentration (IC50) in test [1] of 2200 nM.
On the same count and under the same terms, with `CCCCc1nc2ccccc2n1Cc1ccc(O)c(C)c1` the figure was 20000 nM.
With `CCCc1nc2cccnc2n1Cc1cc(Cl)c(O)c(Cl)c1`, the Kb in test [2] is 31.6 nM. In test [3], the ED2 was 0.65 mg/kg.
As to `CCCCc1nc(Cl)c(CO)n1Cc1ccc(-c2ccccc2-c2nnn[nH]2)cc1` [LOSARTAN], the Kb in test [2] is 2.51 nM. In addition, the ED2 in test [3] worked out at 0.28 mg/kg.
The corresponding values for `Cc1ccnc2c1nc(C1CC1)n2Cc1ccc(-c2ccccc2C(=O)O)cc1` are 2 nM and 0.075 mg/kg.
In test [1], `CCCCc1nc2ccccc2n1Cc1cc(Br)c(O)c(Br)c1` had an IC50 of 2500 nM.
On the same count and under the same terms, then `CCCCc1nc2ccccc2n1Cc1cc(C(C)(C)C)c(O)c(C(C)(C)C)c1`, with greater than 100000 nM.
In the case of `CCCc1nc2cccnc2n1Cc1ccc(-c2ccccc2C(=O)O)cc1`, in test [2], the Kb was 39.8 nM.
Regarding `CCSc1nc2c(C)ccnc2n1Cc1ccc(-c2ccccc2C(=O)O)cc1`, in test [2], the Kb is 5.01 nM. In test [3], this molecule came in with an ED2 of 0.41 mg/kg.
In turn, `CCCCc1nc2ccccc2n1CCc1cc(I)c(O)c(I)c1` yielded an IC50 in test [1] of 81000 nM.
Regarding `O=C(O)c1ccccc1-c1ccc(Cn2c(C3CC3)nc3c(C(=O)O)ccnc32)cc1`, the Kb in test [2] is 25.1 nM.
The same measure, in the same setting: with `Oc1c(Cl)cc(Cn2c(C3CC3)nc3ncccc32)cc1Cl` the figure was 631 nM.
In the case of `CCCCc1nc2c(C)cccc2n1Cc1cc(Cl)c(O)c(Cl)c1`, the Kb in test [2] is 20 nM. This molecule also came in with an ED2 in test [3] of 1.3 mg/kg.
As to `CCCCc1nc2cccnc2n1Cc1cc(Cl)c(O)c(Cl)c1`, the Kb in test [2] is 63.1 nM. The ED2 in test [3] came out at 1.9 mg/kg.
The corresponding values for `Cc1ccnc2c1nc(C1CCC1)n2Cc1ccc(-c2ccccc2C(=O)O)cc1` are 5.01 nM and 0.25 mg/kg.
The corresponding values for `CCCCc1nc2c(C)ccnc2n1Cc1cc(Cl)c(O)c(Cl)c1` are 10 nM and 0.55 mg/kg.
The corresponding values for `Cc1ccnc2c1nc(C1CC1)n2Cc1cc(Cl)c(O)c(Cl)c1` are 2 nM and 0.079 mg/kg.
Take `CSc1nc2c(C)ccnc2n1Cc1ccc(-c2ccccc2C(=O)O)cc1`: the Kb in test [2] was 10 nM. This molecule displayed an ED2 in test [3] of 0.97 mg/kg.
On to `CCCCc1nc2ccccc2n1Cc1cc(Cl)c(O)c(Cl)c1`, for which the Kb in test [2] is 63.1 nM. The molecule also came in with an ED2 in test [3] of 6.5 mg/kg. The molecule also yielded a concentration for half-maximal inhibition (IC50) in test [1] of 3200 nM.
Turning to `CCCCc1nc2ccccc2n1Cc1ccc(O)cc1`, the half-inhibitory concentration (IC50) in test [1] was found to be 8500 nM.
For `CCc1nc2c(C)ccnc2n1Cc1ccc(-c2ccccc2C(=O)O)cc1`, the Kb in test [2] is 1.26 nM. Besides, in test [3], the ED2 was 0.29 mg/kg.
`Cc1ccnc2c1nc(CCCO)n2Cc1ccc(-c2ccccc2C(=O)O)cc1`: the Kb in test [2] was 501 nM.
`Cc1ccnc2c1nc(C(C)C)n2Cc1ccc(-c2ccccc2C(=O)O)cc1`: in test [2], the Kb is 31.6 nM. Also, in test [3], the ED2 stood at 0.84 mg/kg.
The corresponding values for `Cc1ccnc2c1nc(C)n2Cc1ccc(-c2ccccc2C(=O)O)cc1` are 50.1 nM and 1.3 mg/kg.
Regarding `CCCc1nc2c(C)ccnc2n1Cc1cc(Cl)c(O)c(Cl)c1`, in test [2], the Kb is 1.26 nM. In addition, the ED2 in test [3] turned out to be 0.15 mg/kg.
Take `C/C=C/c1nc2c(C)ccnc2n1Cc1ccc(-c2ccccc2C(=O)O)cc1`: in test [2], the Kb is 5.01 nM. The same molecule registered an ED2 in test [3] of 0.35 mg/kg.
In the case of `CCCCc1nc2ccccc2n1Cc1cc([N+](=O)[O-])c(O)c([N+](=O)[O-])c1`, the IC50 in test [1] stood at 1600 nM.
As for `CCCc1nc2ncccc2n1Cc1cc(Cl)c(O)c(Cl)c1`, the Kb in test [2] is 794 nM.
Same read-out and setting: then `O=C(O)c1ccccc1-c1ccc(Cn2c(C3CC3)nc3c(CO)ccnc32)cc1`, with 10 nM.
Regarding `COCc1nc2c(C)ccnc2n1Cc1ccc(-c2ccccc2C(=O)O)cc1`, the Kb in test [2] was 79.4 nM. The molecule also yielded an ED2 in test [3] of 0.65 mg/kg.
In test [1], `CCCCc1nc2ccccc2n1Cc1cc(C)c(O)c(C)c1` displayed an IC50 of 4700 nM.
With `CCCCc1nc2ncccc2n1Cc1cc(Cl)c(O)c(Cl)c1`, the Kb in test [2] is 398 nM.
Regarding `CCCc1nc2c(C)ccnc2n1Cc1ccc(-c2ccccc2C(=O)O)cc1`, in test [2], the pA2 (commonly a measure of antagonist potency on a negative log scale) turned out to be 8.5 and the Kb was 3.16 nM. The same molecule registered an ED2 in test [3] of 0.16 mg/kg.
For the molecule `CCCCc1nc2c(C)ccnc2n1Cc1ccc(-c2ccccc2C(=O)O)cc1`, the Kb in test [2] is 7.94 nM. The ED2 in test [3] stood at 0.45 mg/kg.
The corresponding values for `CCCc1nc2c(Cl)ccnc2n1Cc1ccc(-c2ccccc2C(=O)O)cc1` are 7.94 nM and 0.66 mg/kg.
